This is an account of results in US20220348567A1, “NOVEL OXADIAZOLE COMPOUNDS CONTAINING 5- MEMBERED HETEROAROMATIC RING FOR CONTROLLING OR PREVENTING PHYTOPATHOGENIC FUNGI” (PI INDUSTRIES LTD., priority 2019, published 2022).

Test [1] has as its system Botrytis cinerea. The test can be described thus: Botrytis cinerea (gray mold) in vitro radial growth test on potato dextrose agar. In kind it is cell-based. The following applies: 300 ppm; 7 days, 22° C., 90% relative humidity.
The subject of test [2] is Fusarium culmorum. The test can be described thus: Fusarium culmorum (foot rot of cereals) in vitro radial growth test on potato dextrose agar. Format: cell-based. The following applies: 300 ppm; 7 days, 25° C., 60% relative humidity. On the procedure:
Compounds were dissolved in 0.3% dimethyl sulfoxide and then added to potato dextrose agar medium just prior to dispensing it into petri dishes. 5 mL medium with the compound in the desired concentration was dispensed into 60 mm sterile petri-plates. After solidification, each plate was seeded with a 5 mm size mycelial disc taken from the periphery of an actively growing virulent culture plate. Plates were incubated in growth chambers at 25° C. temperature and 60% relative humidity for seven days and then the radial growth was measured and compared to the one of the untreated control.

In test [3] the test system is Parastagonospora nodorum. The test can be described thus: Parastagonospora nodorum (PARANO) microtiter growth inhibition assay, OD600. Format: cell-based. The following applies: 18° C., 15-18 days, read-out: control (growth inhibition by OD600). The procedure:
Potato dextrose (PDB) liquid medium (Difco) containing a […] (10^5 spores/ml) spore suspension was prepared. For the inhibition assay, each test compound was solved in dimethyl sulfoxide. 100 μl of the test media-solution was added to a 96-well microtiter plate, consequently, the same volume (100 μl) of spore suspension was added to the well making the final test concentrations and the plate was incubated at 18° C. for 15-18 days. The growth inhibition was evaluated by measuring the OD600. Percent inhibition was calculated with the below formula: I=([…])*100 Where T=treatment, C═control, and B=blank

The test system of test [4] is Phakopsora pachyrhizi. In words: Phakopsora pachyrhizi test in soybean, greenhouse, preventive activity. The following applies: 24 h, spray one day before inoculation, soybean plants, read-out: control (efficacy, disease severity rating versus untreated control). Format: in vivo, Phakopsora pachyrhizi on soybean plants. On the procedure: Compounds were dissolved in 2% dimethyl sulfoxide/acetone and then mixed with water containing emulsifier to the calibrated spray volume of 50 mL. Each spray solution was poured into a spray bottle for further application. To test the preventive activity of the compound, healthy young Soybean plants, raised in the greenhouse, were sprayed with the active compound preparation at the stated application rate inside the spray cabinets using hollow cone nozzles. One day aftertreatment, the plants were inoculated with a conidial suspension containing 2×10^5Phakopsora […]. The inoculated plants were then kept in a greenhouse chamber at 22-24° C. temperature and 80-90% relative humidity for disease expression. A visual assessment of the compound's performance was carried out by rating the disease severity (0-100% scale) on treated plants 3, 7, 10 and 15 days after application. Efficacy (% control) of the compound was calculated by comparing the disease rating in the treatment with the one of the untreated control. The sprayed plants were also assessed for plant damage by recording symptoms like necrosis, chlorosis and stunting.

One may read the inhibition as the share of the control response that was lost under treatment. For the molecule `CS(=O)(=NC(=O)c1ccn(-c2ccc(-c3noc(C(F)(F)F)n3)cc2)c1)c1ccncc1F` (centres unmarked) [Compound 28, N-((3-fluoropyridin-4-yl)(methyl)(oxo)-λ^6-sulfanylidene)-1-(4-(5-(trifluoromethyl)-1,2,4-oxadiazol-3-yl)phenyl)-1H-pyrrole-3-carboxamide], the “control (radial growth compared to untreated control)” value in test [1] and in test [2] was at least 70% each time. Also, in test [3], the inhibition at 300 ppm is at least 70%.

For the molecule `CS(C)(=O)=NC(=O)c1ccn(-c2ccc(-c3noc(C(F)(F)F)n3)cc2)c1` [Compound 30, N-(dimethyl(oxo)-λ^6-sulfanylidene)-1-(4-(5-(trifluoromethyl)-1,2,4-oxadiazol-3-yl)phenyl)-1H-pyrrole-3-carboxamide], the pest or weed control at 500 ppm in test [4] was at most 70%. For the same molecule, the inhibition at 300 ppm in test [3] is at least 70%.
